Consider one compound from paper PMC4924623 (Molecular cancer therapeutics, 2012).

This test deals with CB2 receptor (hCB2) (Homo sapiens, UniProt P34972). In words: competitive radioligand binding, [3H]CP-55, […] displacement.
Sequence of CB2 receptor (hCB2) (P34972 whole entry): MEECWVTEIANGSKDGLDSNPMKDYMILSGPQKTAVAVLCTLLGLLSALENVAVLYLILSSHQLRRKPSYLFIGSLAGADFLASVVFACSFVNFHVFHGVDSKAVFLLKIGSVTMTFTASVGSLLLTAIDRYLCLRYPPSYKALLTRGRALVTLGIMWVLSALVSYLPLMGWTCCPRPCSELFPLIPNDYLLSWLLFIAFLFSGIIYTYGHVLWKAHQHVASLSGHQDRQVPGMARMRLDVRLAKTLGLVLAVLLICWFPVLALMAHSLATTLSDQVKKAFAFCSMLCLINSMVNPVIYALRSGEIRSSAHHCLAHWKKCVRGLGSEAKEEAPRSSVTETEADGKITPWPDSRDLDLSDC

As usually defined, the Ki is a measure of affinity in units of concentration, obtained from inhibition or displacement. Low readings indicate higher affinity, high ones lower affinity. `C=C(C)[C@@H]1CC[C@]2(C(=O)O)CC[C@]3(C)[C@H](CC[C@@H]4[C@@]5(C)CC[C@H](O)C(C)(C)[C@@H]5CC[C@]43C)[C@@H]12` [BA, Betulinic acid] returned a Ki of 41.2 µM.
